One series deals with purified human PMN MMP-8 (Homo sapiens (Human), UniProt P22894). Put plainly: MMP-8 inhibition in vitro, synthetic octapeptide substrate, tripeptide products by HPLC. The format is biochemical.
The test system of series [1] is neonatal rat ventricular myocytes. Put plainly: Hydrogen peroxide induced LDH release. The format is cell-based. The settings on record: H2O2 100 μM, compound 10 μM. The method, then:
Neonatal rat ventricular myocytes, serum starved for 24 h, were treated with the inhibitors 1 h prior to the addition of 100 μM of hydrogen peroxide (Sigma). LDH release in the conditioned media was quantified using CytoTox-ONE Homogeneous Membrane Integrity Assay reagent (Promega) at the indicated time points.

A short description of series [2]: Solubility in aqueous solutions. The format is physicochemical.
Series [3] concerns LPS-challenged human monocytes. Description: Cytokine and growth factor levels in LPS-challenged human monocytes (Luminex multiplex). The format is cell-based. As to conditions: 2 μM. The method, then:
The cytokine levels were measured by Luminex multiplex, a method that allows the simultaneous measurement of different biological markers.

The test system of another series is human monocytes. Put plainly: Cytotoxicity in human monocytes (MTS). Type of series: cell-based. The method, then: Briefly, human peripheral blood monocytes (HMs) were isolated from a leukocyte concentrate by density gradient centrifugation (Lymphoprep) and the isolated HMs cultured (2 h, 37° C.) to remove non-adherant cells. […] After incubation, the proinflammatory cytokines, TNFα, IL-1β, MCP-1 and IL-6 were measured in the conditioned media by ELISA and cytotoxicity was assessed by measuring the absorbance (490 ran) of formazan produced by reduction of MTS. The HMs alone ±0.1-0.5% DMSO produced minimal levels of these pro-inflammatory cytokines. However, addition of 100 ng/ml or 10 μg/ml of LPS both dramatically stimulated cytokine production.

A further series has as its target MMP-2 (Rattus norvegicus (Rat), UniProt P33436). Description: Skin MMP-2 by ELISA in diabetic rats. Type of series: in vivo. The settings on record: both low and high doses. On the procedure: (§1) At the end of the treatment protocol, the rats were sacrificed, blood samples were collected, and whole skin (except over limbs) and gingiva were dissected (the skin, because of ample quantities of tissue were analyzed for each rat separately; the gingiva, because of the tiny amounts that could be harvested per rat, were pooled for each experimental group, as prescribed previously for tetracycline studies (30). In addition, the jaw bones were collected, defleshed, and bone loss around the teeth analyzed morphometrically as described previously (42, 43).

Series [4] is described as follows: Diabetic adverse events in rats. Type of series: in vivo, rat. As to conditions: 1-week oral treatment, n = 6.
Series [5] deals with neonatal rat ventricular myocytes. Description: Doxorubicin mediated caspase-3 activity. Type of series: cell-based. The settings on record: doxorubicin 500 nM, 6 h and 24 h, compounds 10 μM. The method, then: Neonatal rat ventricular myocytes, serum starved for 24 h, were treated with the inhibitors 1 h prior to the addition of 500 nM of doxorubicin (Sigma). At the indicated time points cells were washed with ice-cold phosphate buffered saline and lysed using RIPA buffer (Pierce) containing protease and phosphatase inhibitors (Sigma). Caspase-3 activity in the cell lysates was measured by incubation with 7-amino-4-trifluoromethyl coumarin (Enzo).

For series [6], the target named is MMP-9 (human leukocyte gelatinase) (Homo sapiens (Human), UniProt P14780). Put plainly: MMP-9 inhibition in vitro, octapeptide/HPLC. Type of series: biochemical.
The target in the next series is IL-1β (Rattus norvegicus (Rat), UniProt Q63264). Put plainly: Gingiva IL-1β by ELISA in diabetic rats. The settings on record: lower oral dose (100 mg/kg), 3 weeks. Type of series: in vivo. The method, then:
as §1

Series [7] has as its system PC-3 human prostate cancer cells. Put plainly: MMP-9 in conditioned media of PC-3 cells (gelatin zymography, Western blot). The format is cell-based. The settings on record: 10 μM and 20 μM, 48 hr. On the procedure:
Compound 1 was evaluated in a cell culture model of cancer. […] After the incubation, aliquots of the conditioned media were assayed for MMP-9 (gelatinase B) by either of two techniques, gelatin zymoyraphy (in the presence of 2 or 10 mMCa^++) and Western blot (both assays used purified MMP-9, 92 kDa gelatinase, as a standard).

The nature of series [8]: Hyperglycemia in streptozotocin-diabetic rats, 1-week oral treatment. The format is in vivo, rat. As to conditions: 100 mg/kg oral once/day for 7 days. The text has this:
The purpose of the following was to establish an in vivo model of excessive collagen degradation to be used to test efficacy of the compounds of the subject invention. Male Sprague-Dawley rats (typically 300-400 gms of body weight), specific viral antibody free, were ordered from Charles River. Following general anesthesia via isoflurane anesthetic inhalation, diabetes was induced by an I.V. administration of streptozotocin (STZ) (50* mg/kg body weight) (Sigma Chemical Co., St Louis, Mo., USA) diluted in 0.9% citrated saline (pH 4.5), after 12 hours of fasting. After the streptozotocin injection, the animals were given free access to water and food. […] In this test, the test-paper color changes to dark brown which indicates glycosuria.
The latter assays were carried out using Western blot analysis with monoclonal antibodies to MMP-8.

Series [9] can be described thus: Alveolar bone loss in diabetic rats. Type of series: in vivo, rat. As to conditions: very high oral dose (500 mg/kg), 3 weeks. On the procedure:
as §1
Alveolar bone loss (the signature pathologic event in inflammatory periodontal disease) was assessed in the defleshed jaws of the compound 1-treated (TX) and untreated rats. Briefly, little or no difference in bone loss was seen comparing the untreated non-diabetic and untreated diabetic rat jaws (enhanced bone loss has been observed in diabetic rats previously when the duration of the hyperglycemia was greater than the 3-week experiment described herein).

For the next series, the system named is TNF-α. Put plainly: TNF-α production by LPS-stimulated human monocytes (ELISA). Type of series: cell-based. As to conditions: 10 and 20 μM. The method, then:
Briefly, human peripheral blood monocytes (HMs) were isolated from a leukocyte concentrate by density gradient centrifugation (Lymphoprep) and the isolated HMs cultured (2 h, 37° C.) to remove non-adherant cells. The adherent HMs were cultured for 18 h (1×10^6 cells/well, 24-well plates)±endotoxin (LPS)±different compounds dissolved in DMSO (the final concentration of DMSO in the RPMI serum-free culture media with Pen./Strep, antibiotics was no greater than 0.5%). After incubation, the proinflammatory cytokines, TNFα, IL-1β, MCP-1 and IL-6 were measured in the conditioned media by ELISA and cytotoxicity was assessed by measuring the absorbance (490 ran) of formazan produced by reduction of MTS. The HMs alone ±0.1-0.5% DMSO produced minimal levels of these pro-inflammatory cytokines. However, addition of 100 ng/ml or 10 μg/ml of LPS both dramatically stimulated cytokine production.

Structures are written as SMILES. Several values for one entry are separate records, joined by “and”; a condition that tells them apart may be missing. Equal entries are not always repeated.

Sequence of purified human PMN MMP-8 (P22894 101-467): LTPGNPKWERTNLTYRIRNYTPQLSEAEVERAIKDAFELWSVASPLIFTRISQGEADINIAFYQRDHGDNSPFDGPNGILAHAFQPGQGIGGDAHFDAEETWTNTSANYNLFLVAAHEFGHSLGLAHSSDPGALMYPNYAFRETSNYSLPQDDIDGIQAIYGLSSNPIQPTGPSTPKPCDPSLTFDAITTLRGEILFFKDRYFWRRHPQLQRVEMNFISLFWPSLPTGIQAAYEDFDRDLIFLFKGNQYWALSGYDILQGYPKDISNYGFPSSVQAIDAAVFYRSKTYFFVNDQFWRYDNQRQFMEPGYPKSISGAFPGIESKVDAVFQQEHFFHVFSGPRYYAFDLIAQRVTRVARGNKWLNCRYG
Sequence of MMP-9 (human leukocyte gelatinase) (P14780 94-707): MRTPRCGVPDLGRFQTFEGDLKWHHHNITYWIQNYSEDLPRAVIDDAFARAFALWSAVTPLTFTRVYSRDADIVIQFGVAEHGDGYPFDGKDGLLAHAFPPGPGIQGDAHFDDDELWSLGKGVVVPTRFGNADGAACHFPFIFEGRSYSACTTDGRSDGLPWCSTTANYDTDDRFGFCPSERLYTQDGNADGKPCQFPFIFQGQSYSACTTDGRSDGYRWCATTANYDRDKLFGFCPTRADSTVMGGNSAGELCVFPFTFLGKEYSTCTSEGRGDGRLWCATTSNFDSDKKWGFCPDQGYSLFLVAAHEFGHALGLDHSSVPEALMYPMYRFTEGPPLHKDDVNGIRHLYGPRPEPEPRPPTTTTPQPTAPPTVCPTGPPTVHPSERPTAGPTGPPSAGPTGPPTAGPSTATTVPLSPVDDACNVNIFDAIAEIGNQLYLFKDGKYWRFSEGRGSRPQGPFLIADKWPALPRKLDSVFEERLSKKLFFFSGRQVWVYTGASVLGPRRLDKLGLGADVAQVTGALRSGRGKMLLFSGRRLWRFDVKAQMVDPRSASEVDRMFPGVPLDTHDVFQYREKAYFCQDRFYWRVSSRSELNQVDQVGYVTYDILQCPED

With `c1cnc2c(c1)ccc1cccnc12` [1,10-phenanthroline, 1,10-O-phenanthroline], the IC50 on purified human PMN MMP-8 (read-out: IC50 against purified hMMP-8) was 10 µM and 35 µM.
As for `COC(=O)C(C(=O)/C=C/c1ccc(O)c(OC)c1)C(=O)/C=C/c1ccc(O)c(OC)c1` [Compound 1, 1,7-Bis(4-hydroxy-3-methoxyphenyl)-4-methoxycarbonylhepta-1E,6E-dien-3,5-dione], in [1] (24 h), the “Effect on LDH release” value is “less dramatic effect”. The Solubility result in [2] is given as “more soluble than the insoluble natural product curcumin”. Also, the “Reduction of MCP-1, TNFα and VEGF levels” value in series [3] is “potent in reducing”. Moreover, in the series on human monocytes (2 uM), the “Cytotoxicity Monocytes @ 5 h incubation” value is listed as 2 uM- 0%. Further, the “Cytotoxicity Monocytes @ 5 h incubation” value with human monocytes (10 uM) is 10 uM- 0%. Further, on MMP-2, the “Reduction of elevated MMP-2 level in skin” value is recorded as 28%. For the same compound, in series [4], the “Description of AEs” value was “Minor inflamed sclera” and the “Incidence of Adverse Events (AEs)” value is 1/6. Besides, the “Modulation of doxorubicin mediated caspase-3 activity” value in series [5] was “None of the MMP inhibitors, including compound 1, negatively modulate caspase-3 activity”. Moreover, the IC50 in series [6] lay in the range of 6 to 17 µM. On IL-1β, the “Reduction of IL-1β in gingiva vs untreated diabetic” value is reported as “about 18%”. The “Production and/or activity of MMP-9” value in series [7] is “inhibited the production and/or activity of MMP-9”. The “Effect on severity of hyperglycemia (serum glucose)” value in [8] is listed as “no effect”. Moreover, in [9], the “Reduction in alveolar bone loss vs untreated groups” value is listed as “less effective”.
As for `COC(=O)C(C(=O)/C=C/c1ccc(O)cc1)C(=O)/C=C/c1ccc(O)cc1` [Compound 3, 1,7-Bis(4-hydroxyphenyl)-4-methoxycarbonylhepta-1E,6E-dien-3,5-dione], the “IC50 collagenase (MMP-8) activity” value against purified human PMN MMP-8 (Example 7 experiment, 37° C., 1 mM Ca++) is reported as “more potent as a collagenase or MMP inhibitor than compound 1”. Further, the Solubility result in series [2] was “more soluble in aqueous solutions than compound 1”. The compound further registered an IC50 in series [6] of 6 to 17 µM.
`COc1cc(/C=C/C(=O)CC(=O)/C=C/c2ccc(N(C)C)cc2)ccc1O` [Compound 4]: in series [6], the IC50 lay within 6 to 17 µM.
Turning to `COc1cc(/C=C/C(=O)CC(=O)/C=C/c2ccc(O)c(OC)c2)ccc1O` [Curcumin, diferuloylmethane], the Solubility result in [2] was “insoluble”. Moreover, the “Cytotoxicity Monocytes @ 5 h incubation” value with human monocytes (10 uM) came out at 10 uM- 0%. Besides, the “Cytotoxicity Monocytes @ 18 h incubation” value in the series on human monocytes (10 uM, 18 h) was 10 uM- 0%. Further, the “Cytotoxicity associated with TNFα inhibitory effect” value in the series on human monocytes (50 and 100 μM, some precipitation in cell culture) was “significant cytotoxicity”. The “Effect on TNFα production by endotoxin-stimulated human monocytes” value in the series with TNF-α is recorded as “no effect”.
`CNC(=O)[C@H](Cc1c[nH]c2ccccc12)NC(=O)[C@@H](CC(=O)NO)CC(C)C` [GM-6001]: the “Effect on LDH release” value in series [1] is “did not affect LDH release”.
Consider `CCOCOC[C@H](C[C@H](C)C(=O)NO)NC(=O)c1ccc(Oc2ccccc2)cc1` [ONO-4817], for which the “Effect on LDH release” value in [1] is “did not affect LDH release”.

For the origin of these results see patent US11608309B2 (THE RESEARCH FOUNDATION FOR THE STATE UNIVERSITY OF NEW YORK, priority 2009, dated 2023).
